According to patent US20240002393A1, “SUBSTITUTED BENZO[f][l ,2,4JTRIAZOL0[4,3-a][l ,4J[…] GABA A GAMMA! POSITIVE ALLOSTERIC MODULATORS” (Hoffmann-La Roche Inc., priority 2020, published 2024):

Target: h-GABA-A α2β2γ1 (Homo sapiens (Human), UniProt P47869+Q8N1C3)
Assay: Two-electrode voltage clamp electrophysiology in Xenopus oocytes expressing GABAA receptors
Type: cell-based
Conditions: for Efficacy (GABA)%: % modulation of GABA EC20 = 100*(Fold increase−1), compound at 30-fold Ki; for Fold increase h-GABA-A α2β2γ1 oocyte @ 30-fold Ki: GABA EC20, test compound at about 30-fold its Ki α2β2γ1, at least 3 oocytes
Description: Xenopus laevis oocytes at maturation stages V-VI were used for the expression of cloned mRNA encoding GABAA receptor subunits. Oocytes ready for RNA micro-injection were bought from Ecocyte, Castrop-Rauxel, Germany and stored in modified Barth's medium (composition in mM: NaCl 88, KCl 1, NaHCO3 2.4, HEPES 10, MgSO4 0.82, CaNO3 0.33, CaCl2 0.33, pH=7.5) at 20° C. until the experiment.
Oocytes were plated in 96-well plates for microinjection using the Roboinject automated instrument (MultiChannelSystems, Reutlingen, Germany). Approximately 50 nL of an aqueous solution containing the RNA transcripts for the subunits of the desired GABAA receptor subtype was injected into each oocyte. […] Oocytes were kept in modified Barth's medium (composition in mM: NaCl 88, KCl 1, NaHCO3 […], HEPES 10, MgSO4 0.82, CaNO3 0.33, CaCl2 0.33, pH=7.5) at 20° C. until the experiment.
Electrophysiological experiments were performed using the Roboocyte instrument (MultiChannelSystems, Reutlingen, Germany) on days 3 to 5 after the micro-injection of mRNA. During the experiment the oocytes were constantly superfused by a solution containing (in mM) NaCl 90, KCl 1, HEPES 5, MgCl2 1 CaCl2 1 (pH 7.4). Oocytes were impaled by two glass microelectrodes (resistance: 0.5-0.8 MΩ) which were filled with a solution containing KCl 1M+K-acetate 1.5 M and voltage-clamped to −80 mV. The recordings were performed at room temperature using the Roboocyte two-electrode voltage clamp system (Multichannelsystem). After an initial equilibration period of 1.5 min GABA was added for 1.5 min at a concentration evoking approximately 20% of a maximal current response (EC20). After another rest interval of 2.5 min GABA was again added evoking a response of similar amplitude and shape. […] Current traces were recorded at a digitization rate of 10 Hz during and shortly before and after the GABA application.
Each compound and concentration was tested on at least 3 oocytes. Different oocytes were used for different compound concentrations.
For the analysis, the digitized current traces of the first and second GABA response were superimposed and, if necessary, rescaled to equal maximal amplitudes. The ratio between the two responses during the time interval of test compound application was calculated point by point. The extremum of the resulting “ratio trace” was taken as the efficacy (“Fold increase”) of the compound expressed as “% modulation of GABA EC20” (100*(Fold increase−1)).

| SMILES | Efficacy (GABA)% [%] | Fold increase h-GABA-A α2β2γ1 oocyte @ 30-fold Ki |
| --- | --- | --- |
| C[C@@H]1N=C(c2ccccc2F)c2c(ccc(Br)c2Cl)-n2cnnc21 [Example 30, (4S)-8-bromo-7-chloro-6-(2-fluorophenyl)-4-methyl-4H-[1,2,4]triazolo[4,3-a][1,4]benzodiazepine] | 57 | 1.57 |
| OC1N=C(c2c(F)cccc2F)c2c(ccc(Br)c2Cl)-n2cnnc21 (stereo not drawn) [Example 31, 8-bromo-7-chloro-6-(2,6-difluorophenyl)-4H-[1,2,4]triazolo[4,3-a][1,4]benzodiazepin-4-ol] | 74 | 1.74 |
| C[C@@H]1N=C(c2ccccc2F)c2c(ccc(Br)c2Cl)-n2c(-c3cccnn3)nnc21 [Example 32, (4S)-8-bromo-7-chloro-6-(2-fluorophenyl)-4-methyl-1-pyridazin-3-yl-4H-[1,2,4]triazolo[4,3-a][1,4]benzodiazepine] | 105 | 2.05 |
| OC1N=C(c2ccccc2F)c2c(ccc(Br)c2Cl)-n2c(-c3cccnn3)nnc21 (stereo not drawn) [Example 35, 8-bromo-7-chloro-6-(2-fluorophenyl)-1-pyridazin-3-yl-4H-[1,2,4]triazolo[4,3-a][1,4]benzodiazepin-4-ol] | 108 | 2.08 |
| C[C@@H]1N=C(c2c(F)cccc2F)c2c(ccc(Br)c2Cl)-n2cnnc21 [Example 51, (4S)-8-bromo-7-chloro-6-(2,6-difluorophenyl)-4-methyl-4H-[1,2,4]triazolo[4,3-a][1,4]benzodiazepine] | 56 | 1.56 |
| C[C@@H]1N=C(c2c(F)cccc2F)c2c(ccc(Cl)c2Cl)-n2c(-c3ccncn3)nnc21 [Example 52, (4S)-7,8-dichloro-6-(2,6-difluorophenyl)-4-methyl-1-pyrimidin-4-yl-4H-[1,2,4]triazolo[4,3-a][1,4]benzodiazepine] | 100 | 2.00 |
| C[C@@H]1N=C(c2c(F)cccc2F)c2c(ccc(Cl)c2Cl)-n2c(-c3cnn(C)c3)nnc21 [Example 53, (4S)-7,8-dichloro-6-(2,6-difluorophenyl)-4-methyl-1-(1-methylpyrazol-4-yl)-4H-[1,2,4]triazolo[4,3-a][1,4]benzodiazepine] | 32 | 1.32 |
| C[C@@H]1N=C(c2c(F)cccc2F)c2c(ccc(Cl)c2Cl)-n2c(-c3cccnn3)nnc21 [Example 56, (4S)-7,8-dichloro-6-(2,6-difluorophenyl)-4-methyl-1-pyridazin-3-yl-4H-[1,2,4]triazolo[4,3-a][1,4]benzodiazepine] | 78 | 1.78 |
| C[C@@H]1N=C(c2ncccc2F)c2c(ccc(Cl)c2Cl)-n2c(-c3cccnn3)nnc21 [Example 63, (4S)-7,8-dichloro-6-(3-fluoro-2-pyridyl)-4-methyl-1-pyridazin-3-yl-4H-[1,2,4]triazolo[4,3-a][1,4]benzodiazepine] | 891 | 9.91 |
| C[C@@H]1N=C(c2c(F)cccc2F)c2c(ccc(Cl)c2Cl)-n2c1n[nH]c2=O [Example 64, (4S)-7,8-dichloro-6-(2,6-difluorophenyl)-4-methyl-2,4-dihydro-[1,2,4]triazolo[4,3-a][1,4]benzodiazepin-1-one] | 74 | 1.74 |
| C[C@@H]1N=C(c2ncccc2F)c2c(ccc(Cl)c2Cl)-n2c(-c3ccncn3)nnc21 [Example 66, (4S)-7,8-dichloro-6-(3-fluoro-2-pyridyl)-4-methyl-1-pyrimidin-4-yl-4H-[1,2,4]triazolo[4,3-a][1,4]benzodiazepine] | 143 | 2.43 |
| C[C@@H]1N=C(c2ncccc2F)c2c(ccc(Cl)c2Cl)-n2c(-c3cnn(C)c3)nnc21 [Example 67, (4S)-7,8-dichloro-6-(3-fluoro-2-pyridyl)-4-methyl-1-(1-methylpyrazol-4-yl)-4H-[1,2,4]triazolo[4,3-a][1,4]benzodiazepine] | 69 | 1.69 |
| C[C@@H]1N=C(c2ncccc2F)c2c(ccc(Cl)c2Cl)-n2c(C3CC3)nnc21 [Example 68, (4S)-7,8-dichloro-1-cyclopropyl-6-(3-fluoro-2-pyridyl)-4-methyl-4H-[1,2,4]triazolo[4,3-a][1,4]benzodiazepine] | 109 | 2.09 |
| C[C@@H]1N=C(c2c(F)cccc2F)c2c(ccc(Cl)c2Br)-n2c(-c3cccnn3)nnc21 [Example 73, (4S)-7-bromo-8-chloro-6-(2,6-difluorophenyl)-4-methyl-1-(pyridazin-3-yl)-4H-benzo[f][1,2,4]triazolo[4,3-a][1,4]diazepine] | 105 | 2.05 |
| C[C@@H]1N=C(c2c(F)cccc2F)c2c(ccc(Cl)c2Br)-n2c(-c3ccncn3)nnc21 [Example 74, (4S)-7-bromo-8-chloro-6-(2,6-difluorophenyl)-4-methyl-1-pyrimidin-4-yl-4H-[1,2,4]triazolo[4,3-a][1,4]benzodiazepine] | 62 | 1.62 |
| Cc1nnc2n1-c1ccc(Br)c(Cl)c1C(c1c(F)cccc1F)=N[C@H]2C [Example 75, (4S)-8-bromo-7-chloro-6-(2,6-difluorophenyl)-1,4-dimethyl-4H-[1,2,4]triazolo[4,3-a][1,4]benzodiazepine] | 57 | 1.57 |
| C[C@@H]1N=C(c2c(F)cccc2F)c2c(ccc(Cl)c2Br)-n2c(-c3cnn(C)c3)nnc21 [Example 76, (4S)-7-bromo-8-chloro-6-(2,6-difluorophenyl)-4-methyl-1-(1-methylpyrazol-4-yl)-4H-[1,2,4]triazolo[4,3-a][1,4]benzodiazepine] | 52 | 1.52 |
| Cc1nnc2n1-c1ccc(Cl)c(Br)c1C(c1c(F)cccc1F)=N[C@H]2C [Example 80, (4S)-7-bromo-8-chloro-6-(2,6-difluorophenyl)-1,4-dimethyl-4H-[1,2,4]triazolo[4,3-a][1,4]benzodiazepine] | 59 | 1.59 |
| C[C@@H]1N=C(c2c(F)cccc2F)c2c(ccc(Cl)c2Br)-n2c(-c3ccn(C)n3)nnc21 [Example 81, (4S)-7-bromo-8-chloro-6-(2,6-difluorophenyl)-4-methyl-1-(1-methylpyrazol-3-yl)-4H-[1,2,4]triazolo[4,3-a][1,4]benzodiazepine] | 46 | 1.46 |
| Cc1nnc2n1-c1ccc(Cl)c(Cl)c1C(c1c(F)cccc1F)=N[C@H]2C [Example 82, (4S)-7,8-dichloro-6-(2,6-difluorophenyl)-1,4-dimethyl-4H-[1,2,4]triazolo[4,3-a][1,4]benzodiazepine] | 45 | 1.45 |
| C[C@@H]1N=C(c2ncccc2F)c2c(ccc(Br)c2Cl)-n2c(C3CC3)nnc21 [Example 83, (4S)-8-bromo-7-chloro-1-cyclopropyl-6-(3-fluoro-2-pyridyl)-4-methyl-4H-[1,2,4]triazolo[4,3-a][1,4]benzodiazepine] | 102 | 2.02 |
| C[C@@H]1N=C(c2ncccc2F)c2c(ccc(Br)c2Cl)-n2cnnc21 [Example 84, (4S)-8-bromo-7-chloro-6-(3-fluoro-2-pyridyl)-4-methyl-4H-[1,2,4]triazolo[4,3-a][1,4]benzodiazepine] | 203 | 3.03 |
| Cc1nnc2n1-c1ccc(Br)c(Cl)c1C(c1ncccc1F)=N[C@H]2C [Example 85, (4S)-8-bromo-7-chloro-6-(3-fluoro-2-pyridyl)-1,4-dimethyl-4H-[1,2,4]triazolo[4,3-a][1,4]benzodiazepine] | 114 | 2.14 |
| Cc1ccc(-c2nnc3n2-c2ccc(Cl)c(Cl)c2C(c2c(F)cccc2F)=N[C@H]3C)nn1 [Example 86, (4S)-7,8-dichloro-6-(2,6-difluorophenyl)-4-methyl-1-(6-methylpyridazin-3-yl)-4H-[1,2,4]triazolo[4,3-a][1,4]benzodiazepine] | 80 | 1.80 |
